Laboratory results reported in patent US12171868B2 (Neurelis, Inc., priority 2022, dated 2024).
Where two headings read alike, the source gives them in different places.

Details: saturated

In the case of `Cc1cc2c(s1)Nc1ccccc1N=C2N1CCN(C)CC1` [Olanzapine, 2-methyl-4-(4-methyl-1-piperazinyl)-10H-thieno[2,3-b] [1,5]benzodiazepine], the Appearance (20% Dimethylacetamide/80% PEG 200) is reported as “Clear amber solution”, the Appearance (40% Dimethylacetamide/60% PEG 200) is reported as “Clear amber solution” and the Appearance (60% Dimethylacetamide/40% PEG 200) is reported as “Clear dark amber solution”. For the same compound, the Appearance (80% Dimethylacetamide/20% PEG 200) was “Clear dark amber solution” and the Appearance (100% PEG 200) was “Clear amber solution”.
